This is an account of results in ChEMBL document CHEMBL3832761, “MMV Pathogen Box Bioactivity Data” (2017).

The term MIC90 denotes the lowest concentration that inhibits either 90% of growth or 90% of the strains tested, depending on the study. Read a low MIC90 as greater potency. As a reminder, the MIC is the lowest concentration that inhibits growth of the organism. Read a low MIC as inhibition by little substance. In general, CC50 refers to the concentration that lowers cell viability or growth by half.

Common to all, as to assay type: functional
Assay [1] has as its system Mycobacterium tuberculosis. The assay can be described thus: (§1) AntiMycobacterium tuberculosis activity day 10 in 7H9/2.5mM butyrate/pH6/0.1mM nitrite MIC90 (uM). Conditions: 240 h.
The subject of assay [2] is Mycobacterium tuberculosis. The assay can be described thus: AntiMycobacterium tuberculosis activity 2-week Alamar Blue 7H9/cholesterol/BSA/Tx MIC (uM). Particulars: 336 h. In general terms: The colour change of resazurin is a common sign of viable cells or microbes.
Assay [3] has as its system Mycobacterium tuberculosis. The assay can be described thus: AntiMycobacterium tuberculosis activity 2-week 7H9/ADC/Tw MIC (uM). Particulars: 336 h.
Assay [4] relates to Mycobacterium tuberculosis. The assay can be described thus: AntiMycobacterium tuberculosis activity Non-Replicating form: Average MIC90 (uM).
Assay [5] deals with Mycobacterium tuberculosis. The assay can be described thus: AntiMycobacterium tuberculosis activity 2-week 7H9/DPPC/cholesterol/BSA/Tx MIC (uM). Conditions: 336 h.
Assay [6] concerns Mycobacterium tuberculosis. Described as §1. Conditions: 240 h. This is another data set of the same source.
Assay [7] has as its system Mycobacterium tuberculosis. The assay can be described thus: AntiMycobacterium tuberculosis activity 1-week 7H9/ADC/Tw MIC (uM). Particulars: 168 h.
In assay [8] the test system is Mycobacterium tuberculosis. The assay can be described thus: AntiMycobacterium tuberculosis activity 1-week 7H9/glucose/BSA/Tx MIC (uM). Conditions: 168 h.
For assay [9], the system named is Mycobacterium tuberculosis. The assay can be described thus: AntiMycobacterium tuberculosis activity day 21 MIC99 in 7H9/2.5mM butyrate/pH6/0.1mM nitrite MIC99 (uM). Particulars: 504 h.
Assay [10] deals with Mycobacterium tuberculosis. The assay can be described thus: AntiMycobacterium tuberculosis activity day 21 in 7H9/2.5mM butyrate/pH6/0.1mM nitrite MIC90 (uM). Conditions: 504 h.
In assay [11] the test system is Mycobacterium tuberculosis. The assay can be described thus: AntiMycobacterium tuberculosis activity 1-week 7H9/cholesterol/BSA/Tx MIC (uM). Particulars: 168 h.
A further assay has as its system HepG2. The assay can be described thus: HepG2 CC50 (uM) Cytotoxicity. Conditions: Homo sapiens.
Assay [12] deals with Mycobacterium tuberculosis. The assay can be described thus: AntiMycobacterium tuberculosis activity 2-week Alamar Blue 7H9/ADC/Tw MIC (uM). Conditions: 336 h.
Assay [13] relates to Mycobacterium tuberculosis. The assay can be described thus: AntiMycobacterium tuberculosis activity 2-week 7H9/glucose/BSA/Tx MIC (uM). Conditions: 336 h.
For assay [14], the system named is Mycobacterium tuberculosis. The assay can be described thus: AntiMycobacterium tuberculosis activity 1-week GAST/Fe MIC (uM). Conditions: 168 h.
In assay [15] the test system is Mycobacterium tuberculosis. The assay can be described thus: AntiMycobacterium tuberculosis activity 1-week 7H9/DPPC/cholesterol/BSA/Tx MIC (uM). Particulars: 168 h.
Assay [16] has as its system Mycobacterium tuberculosis. The assay can be described thus: AntiMycobacterium tuberculosis activity Replicating form: Average MIC90 (uM).
Assay [17] has as its system Mycobacterium tuberculosis. The assay can be described thus: AntiMycobacterium tuberculosis activity 2-week GAST/Fe MIC (uM). Particulars: 336 h.

The structures appear in SMILES notation. Converted amounts (≈) assume the structure as drawn.

As to `Cc1nn(Cc2ccccc2)c(Cl)c1C(=O)NC1CCCCCC1`, the MIC90 is 3.12 µM (≈ 1.08 µg/mL) in assay [1]; 5.96 µM (≈ 2.06 µg/mL) in assay [4]; 3.12 µM (≈ 1.08 µg/mL) in assay [6]; 25 µM (≈ 8.65 µg/mL) in [10]; greater than 100 µM in [16]. Further, the MIC was 2.3 µM (≈ 0.796 µg/mL) in [2]; 50 µM (≈ 17.3 µg/mL) in [3]; 6.25 µM (≈ 2.16 µg/mL) in assay [5]; 19 µM (≈ 6.57 µg/mL) in [7]; 37 µM (≈ 12.8 µg/mL) in [8]; 25 µM (≈ 8.65 µg/mL) in [9]. Moreover, the minimal inhibitory concentration (MIC) is 1.56 µM (≈ 0.54 µg/mL) in assay [11]; 6.25 µM (≈ 2.16 µg/mL) in [12]; greater than 50 µM in assay [13]; 0.39 µM (≈ 0.135 µg/mL) in assay [14]; 4.7 µM (≈ 1.63 µg/mL) in [15]; 0.39 µM (≈ 0.135 µg/mL) in assay [17]. Also, the CC50 in the assay on HepG2 was greater than 100 µM.
As to `CC(=O)NCC1CN(c2ccc(-c3ccc(CO)cc3)c(F)c2)C(=O)O1` (stereo not given), the MIC90 in [1] is 1.5 µM (≈ 0.538 µg/mL); in assay [4] it was 0.32 µM (≈ 0.115 µg/mL); in assay [6], 0.39 µM (≈ 0.14 µg/mL); in assay [10] it was 0.78 µM (≈ 0.28 µg/mL); in assay [16], 0.49 µM (≈ 0.176 µg/mL). For the same compound, the MIC came out at 0.39 µM (≈ 0.14 µg/mL) in assay [2]; 0.6 µM (≈ 0.215 µg/mL) in assay [3]; 0.6 µM (≈ 0.215 µg/mL) in assay [5]; 0.39 µM (≈ 0.14 µg/mL) in assay [7]; 0.6 µM (≈ 0.215 µg/mL) in assay [8]; 1.5 µM (≈ 0.538 µg/mL) in [9]. The MIC in assay [11] amounted to 0.39 µM (≈ 0.14 µg/mL); in [12] it was 0.39 µM (≈ 0.14 µg/mL); in assay [13], 0.6 µM (≈ 0.215 µg/mL); in assay [14], 0.1 µM (≈ 0.0358 µg/mL); in [15], 0.39 µM (≈ 0.14 µg/mL); in [17] it was 0.3 µM (≈ 0.108 µg/mL). In the assay on HepG2, the cytotoxic concentration (CC50) is greater than 100 µM.
For `CC(C)=CCC/C(C)=C\CNCCNC1C2CC3CC(C2)CC1C3` (stereo not given), the MIC90 in assay [1] was greater than 50 µM; in assay [4] it was 5.3 µM (≈ 1.75 µg/mL); in assay [6], greater than 50 µM; in assay [10], greater than 50 µM; in [16] it was 1.24 µM (≈ 0.41 µg/mL). In addition, the minimal inhibitory concentration (MIC) in assay [2] was 0.78 µM (≈ 0.258 µg/mL); in assay [3] it was 1.2 µM (≈ 0.397 µg/mL); in [5], 0.6 µM (≈ 0.198 µg/mL); in [7], 0.78 µM (≈ 0.258 µg/mL); in [8] it was 0.6 µM (≈ 0.198 µg/mL); in assay [9], greater than 50 µM. Moreover, the MIC in assay [11] turned out to be 0.39 µM (≈ 0.129 µg/mL); in assay [12], 1.2 µM (≈ 0.397 µg/mL); in assay [13], 1.2 µM (≈ 0.397 µg/mL); in assay [14], 0.39 µM (≈ 0.129 µg/mL); in assay [15] it was 0.39 µM (≈ 0.129 µg/mL); in assay [17], 0.78 µM (≈ 0.258 µg/mL). Further, in the assay on HepG2, it took 7.1 µM to reach half-maximal cytotoxicity (CC50).
As for `Cc1cc(O)nc(-n2nc(C)cc2C)n1`, the MIC90 was 25 µM (≈ 5.11 µg/mL) in assay [1]; greater than 43.3 µM in [4]; 6.25 µM (≈ 1.28 µg/mL) in [6]; 12.5 µM (≈ 2.55 µg/mL) in assay [10]; greater than 100 µM in [16]. In addition, the MIC in [2] is 25 µM (≈ 5.11 µg/mL); in assay [3], 50 µM (≈ 10.2 µg/mL); in assay [5] it was greater than 50 µM; in assay [7], 37 µM (≈ 7.56 µg/mL); in assay [8], 25 µM (≈ 5.11 µg/mL); in [9], 12.5 µM (≈ 2.55 µg/mL). The minimal inhibitory concentration (MIC) in [11] was 25 µM (≈ 5.11 µg/mL); in assay [12], 50 µM (≈ 10.2 µg/mL); in [13] it was greater than 50 µM; in [14], 1.56 µM (≈ 0.319 µg/mL); in assay [15] it was 50 µM (≈ 10.2 µg/mL); in assay [17] it was 4.7 µM (≈ 0.96 µg/mL). Moreover, half-maximal cytotoxicity in the assay with HepG2 (CC50) was put at 60.7 µM.
Regarding `Cc1ccc(NC(=O)CC2COc3ccccc3O2)cc1Cl` (stereo not given), the MIC90 is greater than 50 µM in [1]; 56.9 µM (≈ 18.1 µg/mL) in [4]; 50 µM (≈ 15.9 µg/mL) in [6]; 50 µM (≈ 15.9 µg/mL) in assay [10]; 53.8 µM (≈ 17.1 µg/mL) in assay [16]. The MIC in assay [2] was 25 µM (≈ 7.94 µg/mL); in assay [3], 50 µM (≈ 15.9 µg/mL); in [5] it was 37 µM (≈ 11.8 µg/mL); in [7], 37 µM (≈ 11.8 µg/mL); in assay [8], 19 µM (≈ 6.04 µg/mL); in assay [9], greater than 50 µM. In addition, the MIC is 19 µM (≈ 6.04 µg/mL) in assay [11]; 50 µM (≈ 15.9 µg/mL) in assay [12]; 25 µM (≈ 7.94 µg/mL) in [13]; 9.4 µM (≈ 2.99 µg/mL) in [14]; 19 µM (≈ 6.04 µg/mL) in [15]; 12.5 µM (≈ 3.97 µg/mL) in assay [17]. This compound also had a CC50 in the assay on HepG2 of 66.7 µM.
